Consider 49 compounds from PMC7155171, “Probing the Open Global Health Chemical Diversity Library for Multistage-Active Starting Points for Next-Generation Antimalarials” (ACS Infectious Diseases, 2020).

Structures are written as SMILES. Read-outs that look alike come from different tables or passages of the source.

For this assay, the system named is P. falciparum Dd2 (PfLuc) line expressing firefly luciferase, asexual blood stage. Put plainly: microbe, parasite or virus in culture. It counts as cell-based, Plasmodium falciparum. The settings on record: Plasmodium falciparum.
[1] abbreviates: DD2, 8-pt dose response, 96hr, read-out: P. falciparum Luciferase ABS 8-pt Reconfirmation Dose Response (96hr): IC50.
[2] abbreviates: DD2, 8-pt dose response, 96hr, read-out: P. falciparum Luciferase ABS 8-pt Reconfirmation Dose Response (96hr): Maximum inhibition (%).
[3] abbreviates: DD2, read-out: CDD P. falciparum Luciferase ABS 11-pt Reconfirmation Dose Response (48hr): IC50 (μM), 11-pt dose response, 48hr.
[4] abbreviates: DD2, 8-pt dose response, 96hr, read-out: CDD P. falciparum Luciferase ABS 8-pt Reconfirmation Dose Response (96hr): IC50.
[5] abbreviates: DD2, 8-pt dose response, 96hr, read-out: CDD P. falciparum Luciferase ABS 8-pt Reconfirmation Dose Response (96hr): Maximum inhibition (%).
Setting [6] is: DD2, 11-pt dose response, 48hr, read-out: CDD P. falciparum Luciferase ABS 11-pt Reconfirmation Dose Response (48hr): Maximum inhibition (%).
The mark [7] stands for this setting: DD2, 11-pt dose response, 96hr, read-out: CDD P. falciparum Luciferase ABS 11-pt Reconfirmation Dose Response (96hr): IC50.
[8] abbreviates: DD2, 11-pt dose response, 96hr, read-out: CDD P. falciparum Luciferase ABS 11-pt Reconfirmation Dose Response (96hr): Maximum inhibition (%).
The mark [9] stands for this setting: DD2, read-out: P. falciparum Luciferase ABS 11-pt Reconfirmation Dose Response (48hr): IC50, 11-pt dose response, 48hr.
Where [10] appears, read: DD2, 11-pt dose response, 48hr, read-out: P. falciparum Luciferase ABS 11-pt Reconfirmation Dose Response (48hr): Maximum inhibition (%).
Where [11] appears, read: DD2, 11-pt dose response, 96hr, read-out: P. falciparum Luciferase ABS 11-pt Reconfirmation Dose Response (96hr): IC50.
[12] abbreviates: DD2, 11-pt dose response, 96hr, read-out: P. falciparum Luciferase ABS 11-pt Reconfirmation Dose Response (96hr): Maximum inhibition (%).

By IC50 is commonly meant the point on the concentration scale where inhibition reaches its midpoint. Consider `CCn1cncc1CN1CCN(CC2(c3ccc(C)cc3)CC2)CC1` [DDD01059073], for which, under setting [1], the IC50 is 1.26 µM. For the same compound, the Emax under setting [2] came to 85.6%.
Consider `CN(C(=O)c1ccon1)[C@@H]1CCC[C@@H](Oc2ccccc2)[C@@H]1O` [DDD01059734], for which the IC50 under setting [1] was 1.12 µM. Moreover, the Emax under setting [2] came out at 85.7%.
With `CN1CCCCC1c1ncc2c(n1)CCN(Cc1ccc(F)cc1)C2` (stereo not drawn) [DDD01059924], under setting [1], the IC50 is 1.65 µM. Also, under setting [2], the Emax came out at 84.5%.
The like results for `Cc1cc(C)c2cc(CNC3CCCCC3)c3nn(C)c(=O)n3c2c1` [DDD01060652] were, in that order, 1.15 µM and 88.2%.
As for `Cc1cnccc1CN1CC[C@H](Oc2cccc(F)c2)[C@@](C)(O)C1` [DDD01060866], under setting [1], the half-maximal inhibitory concentration (IC50) turned out to be 1.79 µM. Besides, the Emax under setting [2] came out at 91.8%.
In the same order, the values of `CCCOc1ccccc1CN[C@@H]1CCC[C@H]1Cc1cc(C)no1` [DDD01060989] are 2.71 µM and 79.8%.
Regarding `COc1cccc([C@H]2CN(C(C)=O)[C@@H]3CCN(Cc4ccsc4)C[C@H]23)c1` [DDD01061089], the IC50 under setting [1] turned out to be 1.31 µM. In addition, the Emax under setting [2] came out at 82.2%.
As for `CCC(CC)(CN)NC(C)c1ccccc1` (stereo not drawn) [DDD01061915], the half-inhibitory concentration (IC50) reads like this: under setting [3], above 12.5 µM; under setting [4], 1.02 µM; under setting [7], above 1.39 µM. Also, the Emax was determined as 85.9% under setting [5], 49.2% under setting [6] and 87.7% under setting [8].
For the compound `Cn1ccnc1C(O)(CCNCc1ccc(Cl)o1)C(F)(F)F` (stereo not drawn) [DDD01062848], under setting [1], the 50% inhibitory concentration (IC50) is 2.81 µM. Besides, under setting [2], the Emax turned out to be 78.7%.
On to `Clc1cc(CN2CCCN3CCCC3C2)c2ncccc2c1` (stereo not drawn) [DDD01063271], for which the IC50 under setting [1] came out at 1.74 µM. Further, the Emax under setting [2] was found to be 93%.
Take `Cn1ccnc1CNC1CCCOc2c1ccc1ccccc21` (stereo not drawn) [DDD01063614]: the IC50 under setting [1] is 1.52 µM. Under setting [2], the Emax stood at 80.3%.
As to `CC(O)CN1CCC(CN(C)Cc2cc(F)cc3cccnc23)CC1` (stereo not drawn) [DDD01063726], under setting [1], the concentration for half-maximal inhibition (IC50) came out at 1.33 µM. Also, the Emax under setting [2] was 92.8%.
In the same order, the values of `CC(C)(NCc1cccc(O)c1)c1ccc2c(c1)OCO2` [DDD01063924] are 1.21 µM and 84.9%.
In the case of `CC(NCCc1nccn1Cc1ccccc1)c1cccs1` (stereo not drawn) [DDD01065609], under setting [1], the half-inhibitory concentration (IC50) worked out at 1.39 µM. Further, the Emax under setting [2] stood at 85.7%.
`Cc1ccc(C(C)NCCc2nccn2Cc2ccccc2)o1` (stereo not drawn) [DDD01065613]: the IC50 under setting [1] turned out to be 1.62 µM. Further, the Emax under setting [2] amounted to 82.8%.
For the compound `CCC(CNC(=O)CNC(C)=O)Oc1cccc(F)c1` (stereo not drawn) [DDD01066100], the IC50 under setting [9] was determined as 6.31 µM, the IC50 under setting [1] turned out to be 2.09 µM and the IC50 under setting [11] amounted to 2.15 µM. The Emax under setting [2] is 83.9%, the Emax under setting [10] was 55.6% and the Emax under setting [12] is 83.4%.
On to `CN(C)CCN(Cc1cccnc1)C(=O)c1ccn(-c2ccccc2)n1` [DDD01066387], for which, under setting [1], the IC50 was 1.43 µM. In addition, the Emax under setting [2] turned out to be 81.1%.
In the case of `CCN(C)CC1CCN(S(=O)(=O)c2cc(C)c(F)cc2Cl)C1` (stereo not drawn) [DDD01067996], under setting [1], the IC50 worked out at 1.72 µM. Moreover, the Emax under setting [2] is 86.1%.
Turning to `CCN1CCC(CNCc2cc(C)ccc2OC)C1` (stereo not drawn) [DDD01069824], the IC50 under setting [1] came out at 1.26 µM. The Emax under setting [2] amounted to 90.1%.
As for `CNS(=O)(=O)c1cccc(C(C)NCc2ccccc2OC)c1` (stereo not drawn) [DDD01069885], under setting [1], the 50% inhibitory concentration (IC50) stood at 1.18 µM. Moreover, the Emax under setting [2] came to 80.1%.
On to `O=C(CCN1CCCC1c1cccc2c1OCCO2)N1CCCCC1` (stereo not drawn) [DDD01070009], for which the IC50 by setting is: under setting [3], 6.96 µM; under setting [4], 1.06 µM; under setting [7], 2.64 µM. The Emax came out at 80.3% under setting [5], 51% under setting [6] and 84.9% under setting [8].
As to `CCN(CC1CN(Cc2nc(C3CC3)no2)CCO1)c1cccnn1` (stereo not drawn) [DDD01070232], the concentration for half-maximal inhibition (IC50) under setting [1] is 1.86 µM. The Emax under setting [2] is 79.6%.
`Fc1ccc2c(C3=CCN(Cc4nnc(C5CCC5)o4)CC3)c[nH]c2c1` [DDD01071325]: under setting [1], the 50% inhibitory concentration (IC50) was determined as 1.7 µM. Also, the Emax under setting [2] was determined as 88.7%.
Take `Cc1cn2c(n1)C(CNCC1=Cc3cc(Cl)ccc3OC1)CCC2` (stereo not drawn) [DDD01073229]: the concentration for half-maximal inhibition (IC50) under setting [1] stood at 1.71 µM.
`COc1ccccc1C(C)(C)NCc1ccc(C)o1` [DDD01074244]: the IC50 under setting [1] was 1.77 µM. The Emax under setting [2] was 82.7%.
`CC(=O)N(c1ccc(C)cc1)c1nc(CN2CCCC(C)C2)cs1` (stereo not drawn) [DDD01075341]: the IC50 under setting [1] amounted to 1.83 µM. The Emax under setting [2] is 86.4%.
For `CCC(NCc1ccccc1Cl)c1ccccc1OCC(=O)NC` (stereo not drawn) [DDD01075649], the IC50 reads like this: under setting [9], above 12.5 µM; under setting [1], 1.9 µM; under setting [11], 3.66 µM. The Emax by setting is: under setting [2], 81.7%; under setting [10], 57.7%; under setting [12], 86.1%.
Take `CCC(NCc1ccccc1C)c1ccccc1OCC(=O)NC` (stereo not drawn) [DDD01075651]: the IC50 was above 12.5 µM under setting [3], 0.85 µM under setting [4] and 2.43 µM under setting [7]. The Emax runs as follows: under setting [5], 76.9%; under setting [6], 60.7%; under setting [8], 84.1%.
On to `CCC(NCc1cccc(Cl)c1)c1ccccc1OCC(=O)NC` (stereo not drawn) [DDD01075652], for which the IC50 under setting [1] was determined as 1.31 µM. The Emax under setting [2] was 76.5%.
Consider `CC(C)Oc1ccc(C(O)CNCc2ccccc2C(F)(F)F)cc1` (stereo not drawn) [DDD01076007], for which, under setting [1], the IC50 was found to be 1.5 µM. Further, the Emax under setting [2] was 80.1%.
`Cc1cnn(CCCNCc2csc(COc3ccccc3)n2)c1` [DDD01077297]: the IC50 came to 7.24 µM under setting [9], 1.25 µM under setting [1] and 1.2 µM under setting [11]. The Emax worked out at 85.8% under setting [2], 63.7% under setting [10] and 86.7% under setting [12].
Turning to `CO[C@@H]1CCN(Cc2ccoc2)C[C@@H]1Cc1ccccc1` [DDD01081909], under setting [4], the IC50 was 1.08 µM. Besides, under setting [5], the Emax turned out to be 85.9%.
As for `FC1(F)CCN(Cc2cccnc2)CC12CCN(c1ccccc1)C2` (stereo not drawn) [DDD01082961], the IC50 under setting [1] came out at 1.65 µM. In addition, the Emax under setting [2] was 91.5%.
The like results for `Fc1cnc(N2CCCC3(CCN(Cc4ccoc4)C3)C2)nc1` (stereo not drawn) [DDD01084184] were, in that order, 1.79 µM and 83.1%.
In the same order, the values of `CC(C)[C@H](CO)Nc1nccc(-c2c[nH]nc2-c2ccncc2)n1` [DDD01235869] are 1.69 µM and 82%.
In the case of `CC(Nc1nc(-c2ccccc2)nc2c1CCNCC2)c1cccnc1` (stereo not drawn) [DDD01244613], the IC50 under setting [1] is 1.58 µM. For the same compound, the Emax under setting [2] turned out to be 92.9%.
Consider `Cc1ncc(CN(C)C2CCCN(CCc3ccccc3)C2)n1C` (stereo not drawn) [DDD01244648], for which the IC50 by setting is: under setting [3], 6.24 µM; under setting [4], 0.88 µM; under setting [7], 1.78 µM. For the same compound, the Emax under setting [5] was determined as 88.5%, the Emax under setting [6] was 55.1% and the Emax under setting [8] was 88.7%.
`CC(C)=CCN1CCC2(CC1)c1ccccc1[C@@H](N1CCSCC1)[C@@H]2O` [DDD01245335]: under setting [1], the IC50 came out at 1.31 µM. In addition, the Emax under setting [2] turned out to be 82.4%.
For `Cn1cc(CN2CCCC(CCc3ccc(F)cc3)C2)cn1` (stereo not drawn) [DDD01246631], under setting [1], the IC50 was found to be 1.75 µM. The Emax under setting [2] came to 84.6%.
For `CC(C)(C)n1cc(C2=CCN(CCN3CCCCCC3)CC2)cn1` [DDD01248990], under setting [1], the IC50 came out at 1.53 µM. The Emax under setting [2] is 78.1%.
Regarding `COc1ccc2[nH]c(CNc3cc(C4CCNCC4)nc(C)n3)cc2c1` [DDD01249030], the IC50 under setting [1] was determined as 1.88 µM. Also, the Emax under setting [2] was found to be 88%.
Take `CN1CCC(N(C)C[C@H]2CC[C@@H](Cc3ccc4occc4c3)O2)CC1` [DDD01250070]: the IC50 under setting [1] is 1.57 µM. The Emax under setting [2] stood at 82.8%.
In the same order, the values of `C=Cc1cccc(CN2C[C@@H](CN(C)CC)[C@@H](CO)C2)c1` [DDD01250237] are 1.27 µM and 83.3%.
In the case of `C[C@@H]1CN(C(=O)C2CCS(=O)(=O)CC2)CC[C@@]1(O)C1CCOCC1` [DDD01250493], under setting [1], the IC50 was 1.67 µM. For the same compound, under setting [2], the Emax was 82.2%.
In the same order, the values of `O=C(CCN1CCCC(CO)(CC2CC2)C1)NCc1cccc(Cl)c1` (stereo not drawn) [DDD01250518] are 1.83 µM and 81.8%.
With `COc1ccccc1CCN1CCCC(CN(C)Cc2ccc(C)o2)C1` (stereo not drawn) [DDD01250738], the half-inhibitory concentration (IC50) under setting [1] amounted to 1.36 µM. Further, the Emax under setting [2] was found to be 86.1%.
Consider `COc1ccnc(CN2CCCC(CCc3ccccc3)C2)c1OC` (stereo not drawn) [DDD01250826], for which the IC50 runs as follows: under setting [9], 1.41 µM; under setting [1], 1.26 µM; under setting [11], 0.447 µM. Moreover, the Emax by setting is: under setting [2], 92.5%; under setting [10], 93%; under setting [12], 99.3%.
Consider `Cn1cc(CN2CCCC(CCc3ccc(F)cc3F)C2)cn1` (stereo not drawn) [DDD01251707], for which, under setting [1], the 50% inhibitory concentration (IC50) is 1.69 µM. The Emax under setting [2] worked out at 81%.
For the compound `Cc1ccccc1CN(CCN(C)C)Cc1ccc(S(C)(=O)=O)cc1` [DDD01251767], the IC50 under setting [1] amounted to 1.52 µM. The Emax under setting [2] worked out at 76.8%.
